Marks after values point to notes of the source that are not given here.
Columns and labels:
[1] = tested on: gouty arthritis rats (sodium urate, right ankle and knee joint cavities); assay: Pharmacodynamics experiment B on gouty arthritis rats: gait score; format: in vivo, SD rats; conditions: for Gait Score: mean
How it was run: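 Male SD rats (180-220 g) received test compounds by gavage as 0.5% CMC-Na suspensions, once daily for 7 days before modeling and for 3 days afterward. Gouty arthritis was induced by injecting 0.2 mL sodium urate solution into the right ankle and knee joint cavities. Gait was graded 0-3 using modified Coderre criteria, and group mean scores were compared with the model group by ANOVA-Dunnett T-test (P<0.05).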

IL-6 = assay: Inflammatory factor experiment A: IL-6 in gouty arthritis rats; format: in vivo, SD rats; conditions: synovial tissue of knee joints; dose 0.6 mg/kg gavage; day 10
Protocol: Compounds 14, 17 and 26 were prepared by grinding with 0.5% CMC-Na before administration and into a suspension for gavage at the corresponding concentration (0.06 mg/mL), with a dosage volume of 10 mL/kg. Colchicine, purchased from Sun Chemical Technology (Shanghai) Co., Ltd. with batch no. 49ETRRAS, and was prepared by grinding with 0.5% CMC-Na before administration and into a suspension for gavage at the corresponding concentration (0.06 mg/mL), with a dosage volume of 10 mL/kg.
The compounds in each group were prepared into a suspension of the corresponding concentration, and the dosage volume was 10 mL/kg.
The crystalline arthritis model was prepared by intra-articular injection of urate crystals (40 mg/mL in the left ankle joint of each rat). Different doses of the test compounds were given separately by gavage administration. The day of administration was defined as day 1 of the experiment, and the compounds were administered once a day for 10 consecutive days (pre-administration of the drug for 7 days prior to modeling, modeling on day 8, and continuation of the drug for 3 days). The experiment ended on day 10. […]

TNF-α = assay: Inflammatory factor experiment B: TNF-α in knee synovial tissue (ELISA); format: in vivo, SD rats
IL-1β = assay: Inflammatory factor experiment B: IL-1β in knee synovial tissue (ELISA); format: in vivo, SD rats
[2] = Acute toxicity test in mice by single administration; format: in vivo, ICR mice; conditions: both sexes, ICR, mouse, in vivo, po; acute toxicity, mice, single gavage; read-out: Maximum tolerated dose (MTD)
Protocol: (§1) Compounds 34, 48, 55 and 58 were ground with 0.5% CMC-Na before administration, and prepared into a suspension of the corresponding concentration for gavage, with an administration volume of 0.1 mL/10 g.
(§2) ICR mice, SPF grade, weighing 18-20 g, 6-8 weeks old, were provided by Nantong University. The Laboratory Animal Production License was SCXK (Su) 2016-0010 and Laboratory Animal Use License was SYXK (Su) 2017-0035.
(§3) After overnight fasting, the drug was administered once by gavage in a volume of 0.1 mL/10 g. The normal group was given the corresponding volume of 0.5% CMC-Na solution according to body weight. The state of the animal was observed after administration, the animals were weighed daily and the number of deaths was recorded for 14 consecutive days.

ICR mice = assay: as above; format: in vivo; conditions: single gavage dose 50 mg/kg; 14 days; deaths/animals
Protocol: as §1, §2, §3

[3] = tested on: novel coronavirus infection; conditions: cited from earlier work
[4] = compounds 0.6 mg/kg, colchicine 0.6 and 1.2 mg/kg
[5] = 4,159 patients with nasopharyngeal nucleic acid test

COc1cc2c(c(OC)c1OC)-c1ccc(OC)c(=O)cc1[C@@H](NC(C)=O)CC2 [colchicine, reference compound]
Gait Score ([1]; 2 h, dose 0.6 mg/kg gavage): 0 | Gait Score ([1]; 2 h, dose 1.2 mg/kg gavage (high dose group)): 0 | Gait Score ([1]; 4 h, dose 0.6 mg/kg gavage): 0.02* | Gait Score ([1]; 4 h, dose 1.2 mg/kg gavage (high dose group)): 0** | Gait Score ([1]; 8 h, dose 0.6 mg/kg gavage): 0.24* | Gait Score ([1]; 8 h, dose 1.2 mg/kg gavage (high dose group)): 0.1** | Gait Score ([1]; 10 h, dose 0.6 mg/kg gavage): 0.16** | Gait Score ([1]; 10 h, dose 1.2 mg/kg gavage (high dose group)): 0.18** | Gait Score ([1]; 24 h, dose 0.6 mg/kg gavage): 0.02* | Gait Score ([1]; 24 h, dose 1.2 mg/kg gavage (high dose group)): 0* | Gait Score ([1]; 48 h, dose 0.6 mg/kg gavage): 0.02 | Gait Score ([1]; 48 h, dose 1.2 mg/kg gavage (high dose group)): 0 | Gait versus model group, in words [1, 4]: significantly improved the gait of rats | Decreased IL-6 percentage % (IL-6): 107.14% | inhibition in vivo at 0.6 mg/kg (TNF-α; Rattus norvegicus, po, synovial tissue of knee joints, 48 h after modeling, dose 0.6 mg/kg, read-out: TNF-α percentage decrease %): 58% | inhibition in vivo at 1.2 mg/kg (TNF-α; Rattus norvegicus, po, synovial tissue of knee joints, 48 h after modeling, dose 1.2 mg/kg (high dose group), read-out: TNF-α percentage decrease %): 52.5% | TNF-α level after modeling, in words (TNF-α; [4]): could reduce the TNF-αlevel | inhibition in vivo at 0.6 mg/kg (IL-1β; Rattus norvegicus, po, synovial tissue of knee joints, 48 h after modeling, dose 0.6 mg/kg, read-out: IL-1β percentage decrease %): 74.2% | inhibition in vivo at 1.2 mg/kg (IL-1β; Rattus norvegicus, po, synovial tissue of knee joints, 48 h after modeling, dose 1.2 mg/kg (high dose group), read-out: IL-1β percentage decrease %): 63.1% | IL-1β level after modeling, in words (IL-1β; [4]): reduced IL-1β in synovial tissue | MTD at 14 days [2]: < 50 mg/kg | Mortality rate (ICR mice): 3/6 | Reduction of hospital admissions [3, 5]: 25% | Reduction of need for respiratory equipment [3, 5]: 50% | Reduction of number of deaths [3, 5]: 44% | Lower risk of hospitalization or death compared with placebo ([3]; 4,488 non-hospitalized patients): 21%
